Results reported in patent US7605272B2, “IGF-1R inhibitor” (Kyowa Hakko Kirin Co., Ltd., priority 2005, dated 2009).
Where two headings read alike, the source gives them in different places.

Legend:
[1] = tested on: KMS-11; assay: Cytostatic activity on human multiple myeloma cell line KMS-11 (WST-1); assay type: cell-based; details: for inhibition at 1 µM / inhibition at 10 µM: Homo sapiens, KMS-11, 72 h; for inhibition at 1 µM: read-out: cytostatic rate (%) KMS-11 (1 μmol/L); for inhibition at 10 µM: 10 μmol/L, read-out: cytostatic rate (%) KMS-11 (10 μmol/L)
Method in brief: (§1)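 Cells pre-cultured 24 h at 37 °C, 5% CO2, then exposed 72 h to compound at final 1 or 10 μmol/L (0.1% DMSO). WST-1 added for 2 h, absorbance at 450 nm (ref 690 nm). Cytostatic rate = 100 minus relative growth, with DMSO control as 100% and blank as 0%.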

[2] = target: T1, IGF-1R (Homo sapiens, UniProt P08069); assay: IGF-1R inhibitory activity (kinase reaction, time-resolved fluoroimmunoassay); assay type: biochemical; details: test compound 10 μmol/L
T1 construct: purchased Upstate Co. 14-465
T1 sequence (P08069 959-1367 limits assumed): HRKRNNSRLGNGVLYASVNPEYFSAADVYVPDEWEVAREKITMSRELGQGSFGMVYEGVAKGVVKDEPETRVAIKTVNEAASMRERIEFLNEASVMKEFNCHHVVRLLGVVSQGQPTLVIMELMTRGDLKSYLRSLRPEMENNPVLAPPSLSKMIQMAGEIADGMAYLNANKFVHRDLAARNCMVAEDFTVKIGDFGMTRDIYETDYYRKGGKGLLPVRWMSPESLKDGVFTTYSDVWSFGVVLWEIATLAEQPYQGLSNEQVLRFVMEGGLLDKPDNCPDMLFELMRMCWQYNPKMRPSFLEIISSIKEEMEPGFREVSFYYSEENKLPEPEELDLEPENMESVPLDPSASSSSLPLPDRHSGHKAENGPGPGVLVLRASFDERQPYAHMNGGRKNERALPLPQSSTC
Method in brief: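 Compounds were tested at a single 10 μmol/L concentration. Each was incubated with recombinant IGF-1R (200 μg/L), 10 mmol/L ATP, MgCl2/MnCl2 and Na3VO4 (pH 7.5) on immobilized poly(Glu-Tyr) peptide for 30 min at 24° C. Eu-anti-phosphotyrosine time-resolved fluorescence (340/615 nm) gave relative activity against no-compound and no-enzyme wells, reported as % inhibition.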

[3] = tested on: NCI-H929; assay: Cytostatic activity on human multiple myeloma cell line NCI-H929 (WST-1); assay type: cell-based; details: for inhibition at 1 µM / inhibition at 10 µM: Homo sapiens, NCI-H929, 72 h; for inhibition at 1 µM: read-out: cytostatic rate (%) H929 (1 μmol/L); for inhibition at 10 µM: 10 μmol/L, read-out: cytostatic rate (%) H929 (10 μmol/L)
Method in brief: as §1

[4] = IGF-1R active recombinant enzyme
[5] = KMS-11 cells, test compound 1 μmol/L, WST-1
[6] = NCI-H929 cells, test compound 1 μmol/L, WST-1

Row | inhibition at 10 µM [2, 4] | Structure (SMILES) | inhibition at 10 µM ([1]; 72 hours) | inhibition at 10 µM ([3]; 72 hours) | other results
1 | 94.2% | COCCN(C)CCCOc1cc(NC(=O)c2sccc2C)c(/C=C/c2n[nH]c3ccccc23)cc1OC [Compound 298, (E)-N-{2-[2-(1H-indazol-3-yl)vinyl]-4-methoxy-5-{3-[N-(2-methoxyethyl)methylamino]propyloxy}phenyl}-3-methylthiophene-2-carboxamide] |  |  | inhibition at 1 µM ([1]; 1 μmol/L, 72 hours): 110%; inhibition at 1 µM ([3]; 1 μmol/L, 72 hours): 117%
2 | 111% | COc1c(OCCCN2CCC(CO)CC2)ccc(/C=C/c2n[nH]c3ccccc23)c1NC(=O)c1sccc1C [Compound 350, (E)-N-(3-{3-[4-(hydroxymethyl)piperidin-1-yl]propoxy}-6-[2-(1H-indazol-3-yl)vinyl]-2-methoxyphenyl)-3-methylthiophene-2-carboxamide] |  |  | inhibition at 1 µM ([1]; 1 μmol/L, 72 hours): 117%; inhibition at 1 µM ([3]; 1 μmol/L, 72 hours): 117%
3 | 99.4% | Cc1nnsc1C(=O)Nc1ccccc1/C=C/c1n[nH]c2ccccc12 [Compound 71, (E)-N-{2-[2-(1H-indazol-3-yl)vinyl]phenyl}-4-methyl-[1,2,3]thiadiazole-5-carboxamide] | 114% | 115% | 
4 | 102% | Cc1c(Br)csc1C(=O)Nc1ccccc1/C=C/c1n[nH]c2ccccc12 [Compound 353, (E)-N-{2-[2-(1H-indazol-3-yl)vinyl]phenyl}-4-bromo-3-methylthiophene-2-carboxamide] |  |  | inhibition at 1 µM ([1]; 1 μmol/L, 72 hours): 77.4%; inhibition at 1 µM ([3]; 1 μmol/L, 72 hours): 104%
5 | 71.2% | O=[N+]([O-])c1ccccc1/C=C/c1n[nH]c2ccccc12 [Compound 1, (E)-3-[2-(2-nitrophenyl)vinyl]-1H-indazole] | 80.2% | 105% | 
6 | 106% | CN1CCN(C(=O)c2ccc(/C=C/c3n[nH]c4ccccc34)c(N3C(=O)c4cccc(N)c4C3=O)c2)CC1 [Compound 315, (E)-4-amino-2-{2-[2-(1H-indazol-3-yl)vinyl]-5-(4-methylpiperazin-1-ylcarbonyl)phenyl}isoindole-1,3-dione] |  |  | inhibition at 1 µM [1, 5]: 106%; inhibition at 1 µM [3, 6]: 113%
7 |  | Cc1ccsc1C(=O)Nc1cc(C(=O)N2CCCC2)ccc1/C=C/c1n[nH]c2ccccc12 [Compound 116, (E)-N-{2-[2-(1H-indazol-3-yl)vinyl]-5-(pyrrolidin-1-ylcarbonyl)phenyl}-3-methylthiophene-2-carboxamide] | 114% | 118% | inhibition at 10 µM [2]: 103%
8 | 97.2% | CCN(CC)CCCOc1cc(NC(=O)c2sccc2C)c(/C=C/c2n[nH]c3ccccc23)cc1OC [Compound 300, (E)-N-{5-[3-(diethylamino)propyloxy]-2-[2-(1H-indazol-3-yl)vinyl]-4-methoxyphenyl}-3-methylthiophene-2-carboxamide] |  |  | inhibition at 1 µM ([1]; 1 μmol/L, 72 hours): 116%; inhibition at 1 µM ([3]; 1 μmol/L, 72 hours): 119%
9 | 99.7% | O=C(Nc1ccccc1/C=C/c1n[nH]c2ccccc12)c1ccsc1 [Compound 31, (E)-N-{2-[2-(1H-indazol-3-yl)vinyl]phenyl}thiophene-3-carboxamide] | 117% | 114% | 
10 | 103% | CN(C)C(=O)c1ccc(/C=C/c2n[nH]c3ccccc23)c(N2C(=O)c3cccc(N)c3C2=O)c1 [Compound 326, (E)-3-(4-amino-1,3-dioxo-1,3-dihydroisoindol-2-yl)-4-[2-(1H-indazol-3-yl)vinyl]-N,N-dimethylbenzamide] |  |  | inhibition at 1 µM [1, 5]: 102%; inhibition at 1 µM [3, 6]: 118%
11 | 99% | O=C1c2ccccc2CN1c1ccccc1/C=C/c1n[nH]c2ccccc12 [Compound 213, (E)-2-{2-[2-(1H-indazol-3-yl)vinyl]phenyl}-2,3-dihydroisoindole-1-one] | 121% | 127% | 
12 |  | Cl.Cn1cccc1C(=O)Nc1cc(N2CCOCC2)ccc1/C=C/c1n[nH]c2ccccc12 [Compound 246, (E)-{2-[2-(1H-indazol-3-yl)vinyl]-5-(morpholin-4-yl)phenyl}-1-methyl-1H-pyrrole-2-carboxamide monohydrochloride] |  |  | cytostatic rate (%) KMS-11 (1 μmol/L) ([1]; 1 μmol/L, 72 hours): 128.9%; inhibitory activity (%) at 10 μmol/L [2, 4]: 100.2%; cytostatic rate (%) H929 (1 μmol/L) ([3]; 1 μmol/L, 72 hours): 126.7%
13 |  | Cc1ccsc1C(=O)Nc1ccc(O)cc1/C=C/c1n[nH]c2ccccc12 [Compound 110, (E)-N-{4-hydroxy-2-[2-(1H-indazol-3-yl)vinyl]phenyl}-3-methylthiophene-2-carboxamide] | 118% | 116% | inhibition at 10 µM [2]: 96.3%
14 | 102% | Cc1ccsc1C(=O)Nc1cc(OCCN2CCOCC2)ccc1/C=C/c1n[nH]c2ccccc12 [Compound 251, (E)-N-{2-[2-(1H-indazol-3-yl)vinyl]-5-[2-(morpholin-4-yl)ethoxy]phenyl}-3-methylthiophene-2-carboxamide] |  |  | inhibition at 1 µM ([1]; 1 μmol/L, 72 hours): 114%; inhibition at 1 µM ([3]; 1 μmol/L, 72 hours): 112%
15 | 93.6% | Cc1cc([N+](=O)[O-])sc1C(=O)Nc1ccccc1/C=C/c1n[nH]c2ccccc12 [Compound 66, (E)-N-{2-[2-(1H-indazol-3-yl)vinyl]phenyl}-3-methyl-5-nitrothiophene-2-carboxamide] | 114% | 111% | 
16 | 103% | Cc1ccsc1C(=O)Nc1cc(CN2CCNC[C@H]2C)ccc1/C=C/c1n[nH]c2ccccc12 [Compound 331, (R)-(E)-N-{2-[2-(1H-indazol-3-yl)vinyl]-5-(2-methylpiperazin-1-ylmethyl)phenyl}-3-methylthiophene-2-carboxamide] |  |  | inhibition at 1 µM [1, 5]: 102%; inhibition at 1 µM [3, 6]: 116%
17 | 86% | O=C(Cc1cccs1)Nc1ccccc1/C=C/c1n[nH]c2ccccc12 [Compound 25, (E)-N-{2-[2-(1H-indazol-3-yl)vinyl]phenyl}-2-(thiophen-2-yl)acetamide] | 106% | 116% | 
18 | 101% | Nc1ccc(C(=O)Nc2ccccc2/C=C/c2n[nH]c3ccccc23)cc1 [Compound 70, (E)-4-amino-N-{2-[2-(1H-indazol-3-yl)vinyl]phenyl}benzamide] | 113% | 115% | 
19 | 90.1% | O=C(Nc1ccccc1)c1ccccc1/C=C/c1n[nH]c2ccccc12 [Compound 47, (E)-N-phenyl-2-[2-(1H-indazol-3-yl)vinyl]benzamide] | 92.1% | 100% | 
20 | 59.2% | O=S(=O)(Nc1ccccc1/C=C/c1n[nH]c2ccccc12)c1ccccc1 [Compound 16, (E)-N-{2-[2-(1H-indazol-3-yl)vinyl]phenyl}benzenesulfonamide] | 85.2% | 64.7% | 
21 | 100% | Nc1cccc2c1C(=O)N(c1cc(CN3CCN(CCCO)CC3)ccc1/C=C/c1n[nH]c3ccccc13)C2=O [Compound 306, (E)-4-amino-2-{5-[4-(3-hydroxypropyl)piperazin-1-ylmethyl]-2-[2-(1H-indazol-3-yl)vinyl]phenyl}isoindole-1,3-dione] |  |  | inhibition at 1 µM [1, 5]: 112%; inhibition at 1 µM [3, 6]: 116%
22 | 105% | Cc1ccsc1C(=O)Nc1cc(CN2CCN(C)C(=O)C2)ccc1/C=C/c1n[nH]c2ccccc12 [Compound 329, (E)-N-{2-[2-(1H-indazol-3-yl)vinyl]-5-(4-methyl-3-oxopiperazine-1-ylmethyl)phenyl}-3-methylthiophene-2-carboxamide] |  |  | inhibition at 1 µM [1, 5]: 116%; inhibition at 1 µM [3, 6]: 132%
23 | 99.5% | Cc1cc(C(=O)Nc2ccccc2/C=C/c2n[nH]c3ccccc23)ccc1N [Compound 158, (E)-4-amino-N-{2-[2-(1H-indazol-3-yl)vinyl]phenyl}-3-methylbenzamide] | 108% | 113% | 
24 | 93.5% | O=C(Nc1cc(C(=O)N2CCN(CCO)CC2)ccc1/C=C/c1n[nH]c2ccccc12)c1cccs1 [Compound 289, (E)-N-{5-[4-(2-hydroxyethyl)piperazin-1-ylcarbonyl]-2-[2-(1H-indazol-3-yl)vinyl]phenyl}thiophene-2-carboxamide] |  |  | inhibition at 1 µM ([1]; 1 μmol/L, 72 hours): 73.6%; inhibition at 1 µM ([3]; 1 μmol/L, 72 hours): 102%
25 | 96.5% | Nc1cccc2c1CN(c1ccccc1/C=C/c1n[nH]c3ccccc13)C2=O [Compound 216, (E)-4-amino-2-{2-[2-(1H-indazol-3-yl)vinyl]phenyl}-2,3-dihydroisoindole-1-one] | 90.9% | 109% | 
26 |  | COC1CCN(C(=O)c2ccc(/C=C/c3n[nH]c4ccccc34)c(N3C(=O)c4cccc(N)c4C3=O)c2)CC1 [Compound 325] |  |  | cytostatic rate (%) KMS-11 (1 μmol/L) [1, 5]: 100.1%; inhibitory activity (%) at 10 μmol/L [2, 4]: 100.2%; cytostatic rate (%) H929 (1 μmol/L) [3, 6]: 118.4%
